Reference: ChEMBL document CHEMBL4325834, “De Novo Molecular Design of a Novel Octapeptide That Inhibits In Vivo Melanogenesis and Has Great Transdermal Ability” (J Med Chem, 2018)
Calls of active or inactive are those of the source. The rule behind the calls is not given here. Where a SMILES comes first, the peptide text is derived from it.

Assays:
[1] = Antioxidant activity assessed as DPPH free radical scavenging activity at 80 uM after 30 mins relative to control; format: functional
[2] = Antioxidant activity assessed as ABTS radical scavenging activity at 80 uM after 10 mins relative to control; format: functional
[3] = Reducing power of the compound assessed as reducing Fe3+ power at 80 uM using K3Fe(CN)6 in pH 6.6 phosphate buffer relative to control
Tyrosinase = molecular target: T1, Tyrosinase (Agaricus bisporus, UniProt O42713); experiment: Inhibition of mushroom tyrosinase using L-dopa as substrate assessed as reduction in dopachrome production after 20 mins by spectrophotometry
T1 sequence (O42713 whole entry): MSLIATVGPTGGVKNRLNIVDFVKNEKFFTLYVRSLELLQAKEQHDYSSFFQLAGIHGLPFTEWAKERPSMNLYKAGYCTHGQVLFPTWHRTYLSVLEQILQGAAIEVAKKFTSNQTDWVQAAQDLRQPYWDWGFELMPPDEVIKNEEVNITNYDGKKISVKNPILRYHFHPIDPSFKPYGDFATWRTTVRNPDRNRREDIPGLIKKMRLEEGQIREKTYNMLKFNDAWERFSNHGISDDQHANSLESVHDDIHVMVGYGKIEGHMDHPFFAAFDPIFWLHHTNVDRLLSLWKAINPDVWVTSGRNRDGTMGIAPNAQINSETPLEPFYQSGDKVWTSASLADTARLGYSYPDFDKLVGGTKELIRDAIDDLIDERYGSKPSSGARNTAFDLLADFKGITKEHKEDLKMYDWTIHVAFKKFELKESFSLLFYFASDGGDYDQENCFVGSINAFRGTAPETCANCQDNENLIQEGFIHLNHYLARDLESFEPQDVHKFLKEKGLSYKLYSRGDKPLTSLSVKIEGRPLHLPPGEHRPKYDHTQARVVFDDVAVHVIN

B16 = experiment: Cytotoxicity against mouse B16 cells up to 150 uM by MTT assay relative to control; format: cell-based
HaCaT = experiment: Cytotoxicity against human HaCaT cells up to 150 uM by MTT assay relative to control; format: cell-based
LAD2 [4] = experiment: (§1) Proinflammatory activity in human LAD2 cells assessed as increase in mast-cell degranulation by measuring beta-hexosaminidase release at 0.125 mM preincubated for 30 mins followed 4-nitrophenyl-N-acetyl-beta-D-glucosaminide substrate addition and measured after 90 mins by fluorescence-based microplate reader analysis relative to control; format: ADME; conditions: lad2, 1.5 h, 125 µM
LAD2 [5] = experiment: as §1, with “2” for “0.125”; format: ADME; conditions: lad2, 1.5 h, 2000 µM
[6] = molecular target: T2, Tyrosinase (Mus musculus) (UniProt P11344); experiment: Inhibition of TYR activity in mouse B16 cells assessed as effect on pallet after exfoliation at 20 uM preincubated for 72 hrs followed L-dopa substrate addition and measured after 4 hrs by fluorescence microscopy; format: cell-based
T2 sequence (whole entry): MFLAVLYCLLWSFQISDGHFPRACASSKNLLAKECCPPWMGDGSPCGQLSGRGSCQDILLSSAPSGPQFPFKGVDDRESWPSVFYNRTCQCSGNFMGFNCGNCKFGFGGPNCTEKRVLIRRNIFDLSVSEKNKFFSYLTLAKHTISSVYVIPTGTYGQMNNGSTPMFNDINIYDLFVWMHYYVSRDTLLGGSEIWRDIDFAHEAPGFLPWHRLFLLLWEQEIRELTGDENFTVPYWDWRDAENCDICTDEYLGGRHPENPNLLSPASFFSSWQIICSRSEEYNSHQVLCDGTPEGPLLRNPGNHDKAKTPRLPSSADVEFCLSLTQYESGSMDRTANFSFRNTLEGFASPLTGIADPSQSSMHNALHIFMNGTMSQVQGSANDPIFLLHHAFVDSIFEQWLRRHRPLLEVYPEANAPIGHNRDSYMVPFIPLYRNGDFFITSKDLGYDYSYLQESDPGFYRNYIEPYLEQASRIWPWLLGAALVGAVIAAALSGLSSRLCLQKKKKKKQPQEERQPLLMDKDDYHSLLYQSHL

[7] = molecular target: T2, Tyrosinase (Mus musculus); experiment: Inhibition of TYR activity in mouse B16 cells assessed as melanin levels post exfoliation at 20 uM after 72 hrs by spectrophotometric analysis relative to control; format: cell-based; parameters: scale not given: the % may be the effect or the level left
[8] = molecular target: T2, Tyrosinase (Mus musculus); experiment: Inhibition of TYR activity in mouse B16 cells 20 uM using L-dopa as substrate after 72 hrs relative to control; format: cell-based
Mus musculus [9] = organism: Mus musculus; experiment: Effect on ERK phosphorylation in mouse B16 cells up to 80 uM after 72 hrs by Western blot analysis; format: cell-based
Mus musculus [10] = organism: Mus musculus; experiment: Effect on JNK phosphorylation in mouse B16 cells up to 80 uM after 72 hrs by Western blot analysis; format: cell-based
Cavia porcellus [11] = experiment: Prophylactic protection against UVB-induced pigmentation in Dunkin-Hartley guinea pig pigmentation model assessed as increase in whitening administered topically 6 hrs before UV radiation every day for 2 weeks; format: functional, organism-based
Cavia porcellus [12] = experiment: (§2) Anti-melanogenic activity in UVB-induced pigmentation Dunkin-Hartley guinea pig model assessed as inhibition of UV-induced melanin production administered topically using PG solvent 6 hrs before UV radiation every day for 2 weeks by Fontana-Masson-staining based assay; format: functional, organism-based
[13] = Toxicity in Dunkin-Hartley guinea pig model of UVB-induced pigmentation assessed as abnormal morphological changes in epidermis at 1 mM to 2 mM administered topically 6 hrs before UV radiation every day for 2 weeks by Fontana-Masson-staining based assay; parameters: species or system Cavia porcellus; conditions: in vivo, topical_or_ocular, 1000 µM
[14] = Toxicity in Dunkin-Hartley guinea pig model of UVB-induced pigmentation assessed as abnormal morphological changes in dermis at 1 mM to 2 mM administered topically 6 hrs before UV radiation every day for 2 weeks by Fontana-Masson-staining based assay; format: tissue-based, Cavia porcellus; conditions: in vivo, topical_or_ocular, 1000 µM
[15] = Drug uptake in skin epidermis of brown guinea pig at 2 mM dosed topically after 30 mins using FITC-labelled compound by H and E staining-based fluorescence microscopy; format: ADME, organism-based, Cavia porcellus; conditions: in vivo, topical_or_ocular, 0.5 h, 2000 µM
[16] = Drug uptake in skin dermis of brown guinea pig at 2 mM dosed topically after 30 mins using FITC-labelled compound by H and E staining-based fluorescence microscopy; format: ADME, organism-based, Cavia porcellus; conditions: in vivo, topical_or_ocular, 0.5 h, 2000 µM
[17] = Drug uptake in skin basal layer of brown guinea pig at 2 mM dosed topically after 1 hr using FITC-labelled compound by H and E staining-based fluorescence microscopy; format: ADME, organism-based, Cavia porcellus; conditions: in vivo, topical_or_ocular, 2000 µM
[18] = molecular target: T2, Tyrosinase (Mus musculus); experiment: Inhibition of TYR activity in mouse B16 cells assessed as reduction in melanin levels at 20 uM after 24 hrs by spectrophotometric analysis relative to control; format: cell-based
[19] = molecular target: T3, Tyrosinase (Agaricus bisporus) (UniProt O42713); experiment: Potency index, ratio of IC50 for arbutin to IC50 for test compound for inhibition of mushroom tyrosinase using L-dopa as substrate assessed as reduction in dopachrome production after 20 mins by spectrophotometry
T3 sequence (whole entry): T1 sequence (O42713 whole entry)

Cavia porcellus [20] = experiment: as §2, with “production in epidermis basal layer at 1 to 2 mM” for “production”; format: functional, organism-based
Cavia porcellus [21] = experiment: Protection against UVB-induced pigmentation in Dunkin-Hartley guinea pig assessed as increase in whitening at 1 to 2 mM using CP hydrogel administered topically post UV radiation for 5 days/week for two consecutive weeks for a total 10 days by Fontana-Masson-staining based assay; format: functional, organism-based

- IC50 (Tyrosinase): 53 µM
- Activity (LAD2 [4]): 3.87%
- Activity (LAD2 [5]): 10.51%
- Activity [6]: Active
- Activity [7]: 52.2%
- inhibition [8]: 25.7%
- Drug uptake [15]: Active
- Drug uptake [16]: Active
- Drug uptake [17]: Active
- inhibition [18]: Active
- Ratio IC50 [19]: 10
SMILES: CC(C)[C@H](NC(=O)[C@H](CCCNC(=N)N)NC(=O)[C@H](Cc1ccccc1)NC(=O)[C@H](CS)NC(=O)[C@H](CCCNC(=N)N)NC(=O)[C@@H](N)[C@@H](C)O)C(=O)N[C@@H](CS)C(=O)N[C@@H](CO)C(=O)O (H-TRCFRVCS-OH)
- Activity [1]: 97%
- Activity [2]: 63%
- Activity [3]: 0.31
- Activity (B16): 10%
- Activity (HaCaT): 9%
- Activity (Mus musculus [9]): inactive
- Activity (Mus musculus [10]): inactive
- Activity (Cavia porcellus [11]): Dose-dependent effect
- Activity (Cavia porcellus [12]): Dose-dependent effect
- Activity [13]: Non-Toxic
- Activity [14]: Non-Toxic
- Activity (Cavia porcellus [20]): Active
- Activity (Cavia porcellus [21]): Active
